Laboratory results taken from the NIST ThermoML archive (doi:10.1016/j.jct.2003.11.007).

What was measured:
[1] = 101.33 kPa, Liquid
[2] = xn = mol fraction of the nth substance listed; settings: 101.3 kPa, Liquid

CCOC(=O)OCC [diethyl carbonate]
[1]
Settings	mass density [kg/m3]
288.15 K	980.29
293.15 K	974.57
298.15 K	969.07
303.15 K	963.6
308.15 K	957.98
318.15 K	947.67
328.15 K	935.12

CCOC(=O)OCC [diethyl carbonate] + CCCCCCCCCCCC
[2]
Settings	mass density [kg/m3]
288.15 K, x1 = 0.1242	766.85
288.15 K, x1 = 0.2013	776.91
288.15 K, x1 = 0.2481	783.48
288.15 K, x1 = 0.309	792.61
288.15 K, x1 = 0.4053	808.61
288.15 K, x1 = 0.5069	827.83
288.15 K, x1 = 0.603	848.75
288.15 K, x1 = 0.7026	873.85
288.15 K, x1 = 0.8014	903.1
288.15 K, x1 = 0.8997	937.64
288.15 K, x1 = 0.9501	958.03
293.15 K, x1 = 0.1018	760.24
293.15 K, x1 = 0.2018	772.97
293.15 K, x1 = 0.2513	779.88
293.15 K, x1 = 0.3056	787.96
293.15 K, x1 = 0.4094	805.05
293.15 K, x1 = 0.5064	823.29
293.15 K, x1 = 0.604	844.35
293.15 K, x1 = 0.7024	868.92
293.15 K, x1 = 0.8026	898.28
293.15 K, x1 = 0.9022	933.11
293.15 K, x1 = 0.9498	952.23
298.15 K, x1 = 0.1025	756.57
298.15 K, x1 = 0.2042	769.39
298.15 K, x1 = 0.2522	776.01
298.15 K, x1 = 0.3009	783.17
298.15 K, x1 = 0.4041	799.89
298.15 K, x1 = 0.5027	818.2
298.15 K, x1 = 0.6059	840.28
298.15 K, x1 = 0.7074	865.61
298.15 K, x1 = 0.799	892.28
298.15 K, x1 = 0.8994	926.96
298.15 K, x1 = 0.9513	947.6
303.15 K, x1 = 0.1013	752.68
303.15 K, x1 = 0.2027	765.3
303.15 K, x1 = 0.2521	772.06
303.15 K, x1 = 0.3003	779.07
303.15 K, x1 = 0.4041	795.74
303.15 K, x1 = 0.4993	813.2
303.15 K, x1 = 0.605	835.58
303.15 K, x1 = 0.7035	859.82
303.15 K, x1 = 0.7993	887.45
303.15 K, x1 = 0.8999	921.93
303.15 K, x1 = 0.9508	942.05
308.15 K, x1 = 0.1049	749.28
308.15 K, x1 = 0.2059	761.76
308.15 K, x1 = 0.2441	766.93
308.15 K, x1 = 0.3043	775.59
308.15 K, x1 = 0.4026	791.26
308.15 K, x1 = 0.5062	810.2
308.15 K, x1 = 0.6032	830.59
308.15 K, x1 = 0.7045	855.29
308.15 K, x1 = 0.8015	883.09
308.15 K, x1 = 0.9005	916.79
308.15 K, x1 = 0.9507	936.48
318.15 K, x1 = 0.1041	741.75
318.15 K, x1 = 0.1989	753.22
318.15 K, x1 = 0.2492	759.89
318.15 K, x1 = 0.3079	768.25
318.15 K, x1 = 0.4075	783.98
318.15 K, x1 = 0.5	800.6
318.15 K, x1 = 0.6026	821.73
318.15 K, x1 = 0.7001	845.05
318.15 K, x1 = 0.7995	872.99
318.15 K, x1 = 0.8973	905.76
318.15 K, x1 = 0.9485	925.55
328.15 K, x1 = 0.1023	733.88
328.15 K, x1 = 0.2027	745.71
328.15 K, x1 = 0.2498	751.81
328.15 K, x1 = 0.3042	759.33
328.15 K, x1 = 0.3984	773.69
328.15 K, x1 = 0.5099	793.25
328.15 K, x1 = 0.6045	812.43
328.15 K, x1 = 0.7037	835.73
328.15 K, x1 = 0.7992	862.04
328.15 K, x1 = 0.8987	894.71
328.15 K, x1 = 0.9506	914.36

COC(=O)OC [dimethyl carbonate]
[1]
Settings	mass density [kg/m3]
288.15 K	1076.43
293.15 K	1069.95
298.15 K	1063.26
303.15 K	1056.61
308.15 K	1050.01
318.15 K	1036.65
328.15 K	1022.92

CCCCCCCCCCCC [dodecane]
[1]
Settings	mass density [kg/m3]
288.15 K	752.44
293.15 K	748.8
298.15 K	745.19
303.15 K	741.57
308.15 K	737.93
318.15 K	730.7
328.15 K	723.32

CCCCCCCCCCCC [dodecane] + COC(=O)OC
[2]
Settings	mass density [kg/m3]
288.15 K, x2 = 0.1	763.29
288.15 K, x2 = 0.1984	775.97
288.15 K, x2 = 0.2519	783.82
288.15 K, x2 = 0.2998	791.48
288.15 K, x2 = 0.3943	808.72
288.15 K, x2 = 0.9498	1031.65
293.15 K, x2 = 0.0994	759.42
293.15 K, x2 = 0.2008	772.33
293.15 K, x2 = 0.2474	779.08
293.15 K, x2 = 0.2967	786.85
293.15 K, x2 = 0.3962	804.76
293.15 K, x2 = 0.9006	989.35
293.15 K, x2 = 0.9507	1026.33
298.15 K, x2 = 0.1015	755.81
298.15 K, x2 = 0.1968	767.75
298.15 K, x2 = 0.2518	775.63
298.15 K, x2 = 0.3057	784.12
298.15 K, x2 = 0.4019	801.57
298.15 K, x2 = 0.4976	822.41
298.15 K, x2 = 0.5975	849.03
298.15 K, x2 = 0.7026	884.3
298.15 K, x2 = 0.7991	925.9
298.15 K, x2 = 0.9011	984.3
298.15 K, x2 = 0.9512	1020.8
303.15 K, x2 = 0.0995	751.67
303.15 K, x2 = 0.195	763.42
303.15 K, x2 = 0.2498	771.18
303.15 K, x2 = 0.3315	784.26
303.15 K, x2 = 0.3999	796.8
303.15 K, x2 = 0.4997	818.35
303.15 K, x2 = 0.6015	845.3
303.15 K, x2 = 0.6974	876.92
303.15 K, x2 = 0.798	919.35
303.15 K, x2 = 0.8988	976.31
303.15 K, x2 = 0.9497	1012.95
308.15 K, x2 = 0.0998	747.85
308.15 K, x2 = 0.1992	759.93
308.15 K, x2 = 0.2486	766.84
308.15 K, x2 = 0.2938	773.75
308.15 K, x2 = 0.4017	792.74
308.15 K, x2 = 0.5014	814.12
308.15 K, x2 = 0.5995	839.81
308.15 K, x2 = 0.6978	871.92
308.15 K, x2 = 0.7983	914.04
308.15 K, x2 = 0.9004	971.25
308.15 K, x2 = 0.9494	1006.38
318.15 K, x2 = 0.1003	740.31
318.15 K, x2 = 0.2044	752.75
318.15 K, x2 = 0.251	759.14
318.15 K, x2 = 0.3042	767.18
318.15 K, x2 = 0.401	783.99
318.15 K, x2 = 0.4988	804.44
318.15 K, x2 = 0.6028	831.06
318.15 K, x2 = 0.6973	861.26
318.15 K, x2 = 0.8023	904.51
318.15 K, x2 = 0.8976	956.98
318.15 K, x2 = 0.9497	993.69
328.15 K, x2 = 0.0924	731.92
328.15 K, x2 = 0.2	744.23
328.15 K, x2 = 0.25	750.88
328.15 K, x2 = 0.3	758.18
328.15 K, x2 = 0.4007	775.11
328.15 K, x2 = 0.5003	795.39
328.15 K, x2 = 0.6158	824.8
328.15 K, x2 = 0.7057	853.75
328.15 K, x2 = 0.7855	885.61
328.15 K, x2 = 0.8981	945.23
328.15 K, x2 = 0.9483	979.79
